{
  "source": "ChEMBL document CHEMBL4825691",
  "about": "“Antimicrobial, modulatory, and antibiofilm activity of tt-farnesol on bacterial and fungal strains of importance to human health” (2021)",
  "format_in_all_cases": "functional",
  "key": {"Escherichia coli [1]": {"test_system": "Escherichia coli", "experiment": "Antibacterial activity against Escherichia coli ATCC 35218 assessed as inhibition of bacterial growth incubated for 24 hrs by microdilution assay"}, "Staphylococcus aureus [2]": {"test_system": "Staphylococcus aureus", "experiment": "Ratio of MBC to MIC against Staphylococcus aureus ATCC 43300"}, "Salmonella typhimurium": {"test_system": "Salmonella typhimurium", "experiment": "Antibacterial activity against Salmonella enterica subsp. enterica serovar Typhimurium ATCC 14028 assessed as inhibition of bacterial growth incubated for 24 hrs by microdilution assay"}, "Streptococcus agalactiae [3]": {"test_system": "Streptococcus agalactiae", "experiment": "Antimicrobial activity against Streptococcus agalactiae ATCC 13813 assessed assessed as reduction in bacterial growth at 1/4 times of drug MIC in the presence of Oxacillin by microdilution method"}, "Escherichia coli [4]": {"test_system": "Escherichia coli", "experiment": "Antibacterial activity against Escherichia coli EAEC I 4913 assessed as inhibition of bacterial growth incubated for 24 hrs by microdilution assay"}, "Serratia marcescens": {"test_system": "Serratia marcescens", "experiment": "Antibacterial activity against Serratia marcescens ATCC 13880 assessed as inhibition of bacterial growth incubated for 24 hrs by microdilution assay", "details": "subsp. marcescens ATCC 13880"}, "Staphylococcus aureus [5]": {"test_system": "Staphylococcus aureus", "experiment": "Antibacterial activity against Staphylococcus aureus MED 55 assessed as inhibition of bacterial growth incubated for 24 hrs by microdilution assay"}, "[6]": {"test_system": "Staphylococcus epidermidis", "experiment": "Ratio of MBC to MIC against Staphylococcus epidermidis 70 D"}, "Staphylococcus aureus [7]": {"test_system": "Staphylococcus aureus", "experiment": "Bactericidal activity against Staphylococcus aureus ATCC 43300 assessed as bacterial killing incubated for 24 hrs by microdilution assay"}, "Streptococcus sobrinus [8]": {"test_system": "Streptococcus sobrinus", "experiment": "Antibacterial activity against Streptococcus sobrinus ATCC 27351 assessed as inhibition of bacterial growth incubated for 24 hrs by microdilution assay"}, "Staphylococcus aureus [9]": {"test_system": "Staphylococcus aureus", "experiment": "Antimicrobial activity against Staphylococcus aureus ATCC […] assessed assessed as reduction in bacterial growth at 1/2 times of drug MIC in the presence of Oxacillin by microdilution method"}, "Streptococcus mutans [10]": {"test_system": "Streptococcus mutans", "experiment": "Bactericidal activity against Streptococcus mutans ATCC 25175 assessed as bacterial killing incubated for 24 hrs by microdilution assay"}, "Streptococcus pyogenes [11]": {"test_system": "Streptococcus pyogenes", "experiment": "Antibiofilm activity against drug-resistant Streptococcus pyogenes ATCC 19615 assessed as inhibition of biofilm formation incubated for 24 hrs by crystal violet staining based microtiter plate method"}, "Pseudomonas aeruginosa": {"test_system": "Pseudomonas aeruginosa", "experiment": "Antibacterial activity against Pseudomonas aeruginosa ATCC 27853 assessed as inhibition of bacterial growth incubated for 24 hrs by microdilution assay"}, "Enterococcus durans [12]": {"test_system": "Enterococcus durans", "experiment": "Antibiofilm activity against drug-resistant Enterococcus durans BIO01 assessed as inhibition of biofilm formation incubated for 24 hrs by crystal violet staining based microtiter plate method"}, "Staphylococcus aureus [13]": {"test_system": "Staphylococcus aureus", "experiment": "Antibiofilm activity against drug-resistant Staphylococcus aureus MED 55 assessed as inhibition of biofilm formation incubated for 24 hrs by crystal violet staining based microtiter plate method"}, "Staphylococcus aureus [14]": {"test_system": "Staphylococcus aureus", "experiment": "Bactericidal activity against Staphylococcus aureus MED 55 assessed as bacterial killing incubated for 24 hrs by microdilution assay"}, "Enterococcus faecalis [15]": {"test_system": "Enterococcus faecalis", "experiment": "Antibacterial activity against Enterococcus faecalis ATCC 6569 assessed as inhibition of bacterial growth incubated for 24 hrs by microdilution assay"}, "[16]": {"test_system": "Staphylococcus epidermidis", "experiment": "Antibiofilm activity against drug-resistant Staphylococcus epidermidis 70 D assessed as inhibition of biofilm formation incubated for 24 hrs by crystal violet staining based microtiter plate method"}, "[17]": {"test_system": "Staphylococcus epidermidis", "experiment": "Bactericidal activity against Staphylococcus epidermidis 70 D assessed as bacterial killing incubated for 24 hrs by microdilution assay"}, "Enterococcus faecalis [18]": {"test_system": "Enterococcus faecalis", "experiment": "Bactericidal activity against Enterococcus faecalis ATCC 51299 assessed as bacterial killing incubated for 24 hrs by microdilution assay"}, "Streptococcus agalactiae [19]": {"test_system": "Streptococcus agalactiae", "experiment": "Antibacterial activity against Streptococcus agalactiae ATCC 13813 assessed as inhibition of bacterial growth incubated for 24 hrs by microdilution assay"}, "Staphylococcus aureus [20]": {"test_system": "Staphylococcus aureus", "experiment": "Antimicrobial activity against […] assessed assessed as reduction in bacterial growth at 1/4 times of drug MIC in the presence of Oxacillin by microdilution method"}, "Escherichia coli [21]": {"test_system": "Escherichia coli", "experiment": "Antibacterial activity against Escherichia coli EHEC 933 assessed as inhibition of bacterial growth incubated for 24 hrs by microdilution assay"}, "Streptococcus pyogenes [22]": {"test_system": "Streptococcus pyogenes", "experiment": "Bactericidal activity against Streptococcus pyogenes ATCC 19615 assessed as bacterial killing incubated for 24 hrs by microdilution assay"}, "[23]": {"test_system": "Stenotrophomonas maltophilia", "experiment": "Antibacterial activity against Stenotrophomonas maltophilia EM 0104assessed as inhibition of bacterial growth incubated for 24 hrs by microdilution assay"}, "Streptococcus pyogenes [24]": {"test_system": "Streptococcus pyogenes", "experiment": "Antimicrobial activity against Streptococcus pyogenes ATCC 19615 assessed assessed as reduction in bacterial growth at 1/8 times of drug MIC in the presence of Ampicillin by microdilution method"}, "Streptococcus sobrinus [25]": {"test_system": "Streptococcus sobrinus", "experiment": "Bactericidal activity against Streptococcus sobrinus ATCC 27351 assessed as bacterial killing incubated for 24 hrs by microdilution assay"}, "Escherichia coli [26]": {"test_system": "Escherichia coli", "experiment": "Antibacterial activity against Escherichia coli EOL 931 assessed as inhibition of bacterial growth incubated for 24 hrs by microdilution assay"}, "Klebsiella pneumoniae": {"test_system": "Klebsiella pneumoniae", "experiment": "Antibacterial activity against Klebsiella pneumoniae ATCC 1705 assessed as inhibition of bacterial growth incubated for 24 hrs by microdilution assay"}, "Staphylococcus aureus [27]": {"test_system": "Staphylococcus aureus", "experiment": "Antibiofilm activity against drug-resistant Staphylococcus aureus ATCC 43300 assessed as inhibition of biofilm formation incubated for 24 hrs by crystal violet staining based microtiter plate method"}, "Staphylococcus aureus [28]": {"test_system": "Staphylococcus aureus", "experiment": "Antimicrobial activity against Staphylococcus aureus ATCC 29213 assessed assessed as reduction in bacterial growth at 1/4 times of drug MIC in the presence of vancomycin by microdilution method"}, "Enterococcus faecalis [29]": {"test_system": "Enterococcus faecalis", "experiment": "Antimicrobial activity against Enterococcus faecalis ATCC 51299 assessed assessed as reduction in bacterial growth at 1/8 times of drug MIC in the presence of Teicoplanin by microdilution method"}, "Enterococcus durans [30]": {"test_system": "Enterococcus durans", "experiment": "Antibacterial activity against Enterococcus durans BIO 0114 assessed as inhibition of bacterial growth incubated for 24 hrs by microdilution assay"}, "Streptococcus mutans [31]": {"test_system": "Streptococcus mutans", "experiment": "Antibacterial activity against Streptococcus mutans ATCC 25175 assessed as inhibition of bacterial growth incubated for 24 hrs by microdilution assay"}, "Staphylococcus aureus [32]": {"test_system": "Staphylococcus aureus", "experiment": "Antimicrobial activity against Staphylococcus aureus MED 55 assessed assessed as reduction in bacterial growth at 1/2 times of drug MIC in the presence of Oxacillin by microdilution method"}, "Streptococcus pyogenes [33]": {"test_system": "Streptococcus pyogenes", "experiment": "Antimicrobial activity against Streptococcus pyogenes ATCC 19615 assessed assessed as reduction in bacterial growth at 1/4 times of drug MIC in the presence of Ampicillin by microdilution method"}, "Enterococcus faecalis [34]": {"test_system": "Enterococcus faecalis", "experiment": "Antimicrobial activity against Enterococcus faecalis ATCC 51299 assessed assessed as reduction in bacterial growth at 1/4 times of drug MIC in the presence of Teicoplanin by microdilution method"}, "Streptococcus agalactiae [35]": {"test_system": "Streptococcus agalactiae", "experiment": "Antimicrobial activity against Streptococcus agalactiae ATCC 13813 assessed assessed as reduction in bacterial growth at 1/8 times of drug MIC in the presence of Oxacillin by microdilution method"}, "Staphylococcus aureus [36]": {"test_system": "Staphylococcus aureus", "experiment": "Ratio of MBC to MIC against Staphylococcus aureus MED 55"}, "Enterococcus durans [37]": {"test_system": "Enterococcus durans", "experiment": "Antimicrobial activity against Enterococcus durans BIO 0114 assessed assessed as reduction in bacterial growth at 1/4 times of drug MIC in the presence of Teicoplanin by microdilution method"}, "Escherichia coli [38]": {"test_system": "Escherichia coli", "experiment": "Antibacterial activity against Escherichia coli ATCC 25922 assessed as inhibition of bacterial growth incubated for 24 hrs by microdilution assay"}},
  "data": [
    {"smiles": "CC(C)=CCC/C(C)=C/CC/C(C)=C/CO", "note": "[FARNESOL]", "values": [
      {"measurement": "MIC", "setting": "Escherichia coli [1]", "result": "> 1020", "unit": "mg/L"},
      {"measurement": "Ratio", "setting": "Staphylococcus aureus [2]", "result": ">4"},
      {"measurement": "MIC", "setting": "Salmonella typhimurium", "result": "> 1020", "unit": "mg/L"},
      {"measurement": "MIC", "setting": "Streptococcus agalactiae [3]", "result": 0.25, "unit": "mg/L"},
      {"measurement": "MIC", "setting": "Escherichia coli [4]", "result": "> 1020", "unit": "mg/L"},
      {"measurement": "MIC", "setting": "Serratia marcescens", "result": "> 1020", "unit": "mg/L"},
      {"measurement": "MIC", "setting": "Staphylococcus aureus [5]", "result": 64, "unit": "mg/L"},
      {"measurement": "Ratio", "setting": "[6]", "result": 2},
      {"measurement": "MBC", "setting": "Staphylococcus aureus [7]", "result": 512, "unit": "mg/L"},
      {"measurement": "MIC", "setting": "Streptococcus sobrinus [8]", "result": 8, "unit": "mg/L"},
      {"measurement": "MIC", "setting": "Staphylococcus aureus [9]", "result": 1, "unit": "mg/L"},
      {"measurement": "MBC", "setting": "Streptococcus mutans [10]", "result": "> 512", "unit": "mg/L"},
      {"measurement": "MIC", "setting": "Streptococcus pyogenes [11]", "result": 16, "unit": "mg/L"},
      {"measurement": "MIC", "setting": "Pseudomonas aeruginosa", "result": "> 1020", "unit": "mg/L"},
      {"measurement": "MIC", "setting": "Enterococcus durans [12]", "result": 64, "unit": "mg/L"},
      {"measurement": "MIC", "setting": "Staphylococcus aureus [13]", "result": 2, "unit": "mg/L"},
      {"measurement": "MBC", "setting": "Staphylococcus aureus [14]", "result": 128, "unit": "mg/L"},
      {"measurement": "MIC", "setting": "Enterococcus faecalis [15]", "result": "> 1020", "unit": "mg/L"},
      {"measurement": "MIC", "setting": "[16]", "result": 64, "unit": "mg/L"},
      {"measurement": "MBC", "setting": "[17]", "result": 128, "unit": "mg/L"},
      {"measurement": "MBC", "setting": "Enterococcus faecalis [18]", "result": "> 512", "unit": "mg/L"},
      {"measurement": "MIC", "setting": "Streptococcus agalactiae [19]", "result": 16, "unit": "mg/L"},
      {"measurement": "MIC", "setting": "Staphylococcus aureus [20]", "result": 8, "unit": "mg/L"},
      {"measurement": "MIC", "setting": "Escherichia coli [21]", "result": "> 1020", "unit": "mg/L"},
      {"measurement": "MBC", "setting": "Streptococcus pyogenes [22]", "result": 64, "unit": "mg/L"},
      {"measurement": "MIC", "setting": "[23]", "result": "> 1020", "unit": "mg/L"},
      {"measurement": "MIC", "setting": "Streptococcus pyogenes [24]", "result": 0.063, "unit": "mg/L"},
      {"measurement": "MBC", "setting": "Streptococcus sobrinus [25]", "result": 16, "unit": "mg/L"},
      {"measurement": "MIC", "setting": "Escherichia coli [26]", "result": "> 1020", "unit": "mg/L"},
      {"measurement": "MIC", "setting": "Klebsiella pneumoniae", "result": "> 1020", "unit": "mg/L"},
      {"measurement": "MIC", "setting": "Staphylococcus aureus [27]", "result": 32, "unit": "mg/L"},
      {"measurement": "MIC", "setting": "Staphylococcus aureus [28]", "result": 2, "unit": "mg/L"},
      {"measurement": "MIC", "setting": "Enterococcus faecalis [29]", "result": 1, "unit": "mg/L"},
      {"measurement": "MIC", "setting": "Enterococcus durans [30]", "result": 64, "unit": "mg/L"},
      {"measurement": "MIC", "setting": "Streptococcus mutans [31]", "result": 128, "unit": "mg/L"},
      {"measurement": "MIC", "setting": "Staphylococcus aureus [32]", "result": 128, "unit": "mg/L"},
      {"measurement": "MIC", "setting": "Streptococcus pyogenes [33]", "result": 0.063, "unit": "mg/L"},
      {"measurement": "MIC", "setting": "Enterococcus faecalis [34]", "result": 1, "unit": "mg/L"},
      {"measurement": "MIC", "setting": "Streptococcus agalactiae [35]", "result": 0.25, "unit": "mg/L"},
      {"measurement": "Ratio", "setting": "Staphylococcus aureus [36]", "result": 2},
      {"measurement": "MIC", "setting": "Enterococcus durans [37]", "result": 1, "unit": "mg/L"},
      {"measurement": "MIC", "setting": "Escherichia coli [38]", "result": "> 1020", "unit": "mg/L"}
    ]}
  ]
}
